The text below walks through data of ChEMBL document CHEMBL1201862, “PubChem BioAssay data set” (2004).

Among the test systems are DU-145; HCT-116; HL-60; K562; Malme-3M; NCI-H226; NCI-H460; NCI-H522; OVCAR-5; PC-3; SF-295; SF-539; SK-MEL-2; SN12C; SNB-19; SW-620; U-251; UACC-257; UACC-62; UO-31.
Holding throughout (assay): growth of human tumour cells (NCI), 48 h

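Step 1: Grow cells in 96-well plates. Step 2: Expose to compound for 48 hours at 5 concentrations. Step 3: Interpolate endpoints linearly; if unreached, use highest concentration. At the GI50, growth is halved.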 Active and inactive are the calls of the source. Rule as the data show it: active = GI50 up to about 1.1 µM and inactive = higher.

For the compound `c1ccc(CSc2nc(N3CCCCC3)c3cn[nH]c3n2)cc1`, the GI50 with DU-145 was 30.3 µM (inactive); in the assay with HCT-116, 19.2 µM (inactive); in the assay with HL-60, 13.3 µM (inactive); in the assay with K562, 40.3 µM (inactive); in the assay on Malme-3M it was 20.4 µM (inactive); with NCI-H226 it was 18.8 µM (inactive). For the same compound, the GI50 with NCI-H460 was 22.8 µM (inactive); in the assay with NCI-H522, 17 µM (inactive); in the assay on OVCAR-5, 27.9 µM (inactive); with PC-3, 22.5 µM (inactive); in the assay with SF-295, 24.9 µM (inactive); in the assay with SF-539 it was 18.4 µM (inactive). Further, the GI50 in the assay on SK-MEL-2 is 16.2 µM (inactive); in the assay on SN12C, 19.7 µM (inactive); in the assay with SNB-19, 25.2 µM (inactive); with SW-620, 19.9 µM (inactive); in the assay on U-251, 19.1 µM (inactive); in the assay on UACC-257, 18 µM (inactive). The GI50 in the assay on UACC-62 was 15.4 µM (inactive); in the assay with UO-31, 16.6 µM (inactive).

Take `CCCCc1ccc(N2C(=O)c3cccnc3S2(=O)=O)cc1`: the GI50 in the assay with DU-145, in the assay on HCT-116, in the assay on HL-60, in the assay with K562, in the assay with Malme-3M and with NCI-H226 was > 100 µM (inactive) each time. The GI50 in the assay with NCI-H460, in the assay on NCI-H522, in the assay with OVCAR-5, in the assay with PC-3, in the assay on SF-295 and in the assay with SF-539 was > 100 µM (inactive) throughout. In addition, the GI50 in the assay on SK-MEL-2, in the assay on SN12C, with SNB-19, with SW-620, in the assay on U-251 and in the assay on UACC-257 was > 100 µM (inactive) throughout. The GI50 with UACC-62 and in the assay on UO-31 was > 100 µM (inactive) each time.

Consider `O=C(NC(=O)c1ccccc1[N+](=O)[O-])Nc1ccc(Oc2ncc(Cl)cn2)c([N+](=O)[O-])c1`, for which the GI50 in the assay on DU-145 is 0.291 µM (active); in the assay with HCT-116, 0.175 µM (active); in the assay on HL-60 it was 0.0299 µM (active); in the assay with K562, 0.0339 µM (active); in the assay on Malme-3M, 0.061 µM (active); in the assay on NCI-H226 it was 0.263 µM (active). The GI50 is 0.198 µM (active) in the assay with NCI-H460; 0.115 µM (active) in the assay on NCI-H522; 0.875 µM (active) in the assay with OVCAR-5; 0.196 µM (active) in the assay on PC-3; 0.157 µM (active) in the assay on SF-295; 0.233 µM (active) in the assay on SF-539. Further, the GI50 in the assay on SK-MEL-2 was 0.127 µM (active); in the assay with SN12C, 0.7 µM (active); with SNB-19, 2.02 µM (inactive); in the assay on SW-620, 0.106 µM (active); in the assay on U-251 it was 0.255 µM (active); in the assay on UACC-257, 0.431 µM (active). For the same compound, the GI50 in the assay on UACC-62 was 0.0834 µM (active); in the assay on UO-31, 0.573 µM (active).

Regarding `CC1(C)[C@@H]2C[C@H]1c1cnc(-c3ccccn3)cc1[C@H]2C(O)[C@@H]1c2cc(-c3ccccn3)ncc2[C@H]2C[C@@H]1C2(C)C` (stereo not given in full), the GI50 in the assay with DU-145 was 0.125 µM (active); in the assay with HCT-116, 0.0374 µM (active); with HL-60 it was 0.0212 µM (active); in the assay on K562, 0.124 µM (active); in the assay on Malme-3M, 0.218 µM (active); in the assay on NCI-H226 it was < 0.0504 µM (active). Further, the GI50 in the assay on NCI-H460 was 0.0472 µM (active); in the assay with NCI-H522, 0.142 µM (active); in the assay on OVCAR-5, 1.11 µM (active); in the assay on PC-3, 0.332 µM (active); with SF-295 it was 0.0721 µM (active); in the assay with SF-539, 0.214 µM (active). The GI50 in the assay on SK-MEL-2 was 0.428 µM (active); in the assay on SN12C, 0.0547 µM (active); with SNB-19, 0.301 µM (active); with SW-620 it was 0.17 µM (active); in the assay on U-251 it was 0.0741 µM (active); in the assay on UACC-257, 0.396 µM (active). Besides, the GI50 with UACC-62 is 0.247 µM (active); in the assay with UO-31, 0.0785 µM (active).

In the case of `CC(C)(CN)CN`, the GI50 in the assay on DU-145, with HCT-116, in the assay on HL-60, with K562, with Malme-3M and with NCI-H226 was > 100 µM (inactive) throughout. In addition, the GI50 in the assay on NCI-H460, with NCI-H522, with OVCAR-5, in the assay with PC-3, in the assay on SF-295 and with SF-539 was > 100 µM (inactive) throughout. For the same compound, the GI50 in the assay with SK-MEL-2, in the assay on SN12C, with SNB-19, in the assay with SW-620, in the assay with U-251 and with UACC-257 was > 100 µM (inactive) each time. For the same compound, the GI50 with UACC-62 and in the assay on UO-31 was > 100 µM (inactive) each time.

With `O=[N+]([O-])c1ccc(S(=O)(=O)Cc2ccccc2)c([N+](=O)[O-])c1`, the GI50 in the assay on DU-145 is 3.63 µM (inactive); in the assay on HCT-116 it was 1.87 µM (inactive); with HL-60, 1.91 µM (inactive); in the assay on K562 it was 1.13 µM (inactive); with Malme-3M it was 2.91 µM (inactive); with NCI-H226 it was 21.9 µM (inactive). The GI50 is 5.12 µM (inactive) with NCI-H460; 0.748 µM (active) with NCI-H522; 9.55 µM (inactive) with OVCAR-5; 1.78 µM (inactive) in the assay with PC-3; 16.6 µM (inactive) in the assay on SF-295; 1.99 µM (inactive) with SF-539. Besides, the GI50 in the assay on SK-MEL-2 was 2.82 µM (inactive); in the assay with SN12C, 1.91 µM (inactive); with SNB-19, 17.6 µM (inactive); in the assay with SW-620, 1.51 µM (inactive); with U-251 it was 2.23 µM (inactive); with UACC-257, 1.67 µM (inactive). In addition, the GI50 was 2.24 µM (inactive) in the assay on UACC-62 and 1.58 µM (inactive) with UO-31.

Regarding `O=c1[nH]c2ccccc2nc1CBr`, the GI50 in the assay on DU-145 is 19.2 µM (inactive); with HCT-116, 8.39 µM (inactive); with HL-60, 0.213 µM (active); with K562, 2.24 µM (inactive); in the assay on Malme-3M, 2.74 µM (inactive); with NCI-H226, 15.8 µM (inactive). For the same compound, the GI50 in the assay with NCI-H460 is 11.4 µM (inactive); in the assay with NCI-H522, 0.638 µM (active); in the assay with OVCAR-5 it was 17.7 µM (inactive); with PC-3 it was 12.6 µM (inactive); in the assay on SF-295 it was 12.6 µM (inactive); in the assay on SF-539, 9.23 µM (inactive). Further, the GI50 is 8.24 µM (inactive) in the assay on SK-MEL-2; 9.38 µM (inactive) in the assay on SN12C; 23.5 µM (inactive) in the assay with SNB-19; 4.19 µM (inactive) in the assay on SW-620; 9.98 µM (inactive) with U-251; 13.2 µM (inactive) in the assay with UACC-257. The results for the GI50 with UACC-62 and in the assay on UO-31 were 8.11 µM (inactive) and 3.87 µM (inactive), respectively.
